# Laboratory results from patent publication US6174858A, “Conjugates useful in the treatment of prostate cancer” (Merck & Co., Inc., priority 1998, dated 2001).
# Read-outs that look alike come from different tables or passages of the source.
# Legend:
# [1] = test system: LNCaP prostate tumor cells; test: In vitro cytotoxicity, Alamar Blue assay, LNCaP cell kill; assay type: cell-based
# Procedure: (§1) In vitro Assay of Cytotoxicity of Peptidyl Derivatives of Vinca Drugs
# (§2) Specifically, cell cultures of LNCap prostate tumor cells, Colo32ODM cells (designated C320) or T47D cells in 96 well plates was diluted with medium containing various concentrations of a given conjugate (final plate well volume of 200 μl). […] The cells were incubated for 3 days at 37° C., 20 μl of Alamar Blue is added to the assay well. The cells were further incubated and the assay plates were read on a EL-310 ELISA reader at the dual wavelengths of 570 and 600 nm at 4 and 7 hours after addition of Alamar Blue. Relative percentage viability at the various concentration of conjugate tested was then calculated versus control (no conjugate) cultures and an EC50 was determined. Unless otherwise indicated, the acetate salt of the conjugate was tested.
# free PSA (York PSA) = target: T1, free PSA (York PSA) (Homo sapiens, UniProt P07288); test: Recognition of oligopeptide-vinca drug conjugates by free PSA (time to 50% cleavage, HPLC); assay type: biochemical; details: for Time to 50% Substrate Cleavage by York PSA: conjugate to PSA molar ratio 100 to 1, pH 7.4
# T1 construct: purchased York ('York PSA')
# Procedure: The reaction was quenched after various reaction times by the addition of trifluoroacetic acid (TFA) to a final 1% (volume/volume). Alternatively the reaction is quenched with 10 mM ZnCl2. The quenched reaction was analyzed by HPLC on a reversed-phase C18 column using an aqueous 0.1%TFA/acetonitrile gradient. The amount of time (in minutes) required for 50% cleavage of the noted oligopeptide-cytotoxic agent conjugates with enzymatically active free PSA were then calculated.
# Colo320DM cells = test: In vitro cytotoxicity, Alamar Blue assay, Colo320DM control cell line (does not express free PSA); assay type: cell-based
# Procedure: as §1
# as §2, with “The cytotoxicities of the cleaveable oligopeptide-vinca drug conjugates, prepared as described in Example 3, against a line of cells which is known to be killed by unmodified vinca drug was assessed with an Alamar Blue assay. Specifically,” for “Specifically,”
# [2] = 72 HRS, read-out: LNCaP Cell Kill in 72 HRS. {48 HRS} EC 50
# [3] = 72 HRS, read-out: Colo320DM EC 50
# [4] = 72 HRS, second part of Table 2, read-out: LNCaP Cell Kill in 72 HRS. {48 HRS} EC 50
# [5] = 72 HRS, second part of Table 2, read-out: Colo320DM EC 50
# T1 sequence (P07288 25-261): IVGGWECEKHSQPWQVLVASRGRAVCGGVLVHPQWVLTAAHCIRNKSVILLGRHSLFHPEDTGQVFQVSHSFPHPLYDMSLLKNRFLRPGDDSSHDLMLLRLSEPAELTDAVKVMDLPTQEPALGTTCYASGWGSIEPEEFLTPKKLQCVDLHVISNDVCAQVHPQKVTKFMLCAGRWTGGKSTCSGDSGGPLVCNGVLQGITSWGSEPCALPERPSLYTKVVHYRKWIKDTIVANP
Compound,"EC50 [1, 2]",EC50 (Colo320DM cells; [3]),"EC50 [1, 4]",EC50 (Colo320DM cells; [5]),further results
"4-O-((2-OH)Ac-Abu-SSChgQ-S-P)-dAc-VIN: peptide-vinca drug conjugate, SEQ ID NO 91 (XSSXQSP; N-hydroxyacetyl; desacetylvinblastine conjugate)",11.9 µM,52.5 µM,–,–,Time to 50% Substrate Cleavage by York PSA (free PSA (York PSA)): 110 min
"4-O-(Ac-3-Pal-SSChgQS-P)-dAc-VIN: peptide-vinca drug conjugate, SEQ ID NO 92",5.8 µM,8 µM,–,–,Time to 50% Substrate Cleavage by York PSA (free PSA (York PSA)): 80 min
"4-O-(Ac-4-trans-L-HypSSChgQ-S-P)-dAc-VIN: peptide-vinca drug conjugate, SEQ ID NO 96 (XSSXQSP; N-acetyl; desacetylvinblastine conjugate)",47.9 µM,83.9 µM,–,–,"EC50 ([1]; in 5% FBS, read-out: LNCaP Cell Kill EC 50 in 5% FBS): > 16 µM; Substrate cleavage by York PSA after 1 HOUR (free PSA (York PSA)): 8%; EC50 (Colo320DM cells; in 5% FBS, read-out: Colo320DM EC 50 in 5% FBS): 26 µM"
"4-O-(Ac-4-trans-L-HypSSChgQ-SS-4-trans-L-Hyp)-dAc-VIN: peptide-vinca drug conjugate, SEQ ID NO 95 (XSSXQSSX; N-acetyl; desacetylvinblastine conjugate)",16.3 µM,13.1 µM,–,–,Time to 50% Substrate Cleavage by York PSA (free PSA (York PSA)): 13 min
"4-O-(Ac-4-trans-L-HypSSChgQSS-(d)-Pro)-(dAc)-VIN: peptide-vinca drug conjugate, SEQ ID NO 87 (XSSXQSSP; N-acetyl; D-Pro; desacetylvinblastine conjugate)",4.1 µM,8.1 µM,–,–,Substrate cleavage by York PSA after 1 HOUR (free PSA (York PSA)): 34%
"4-O-(Ac-4-trans-L-HypSSChgQSS-Sar)-(dAc)-VIN: peptide-vinca drug conjugate, printed under SEQ ID NO 86 and 105 (XSSXQSSG; N-acetyl; desacetylvinblastine conjugate)",4.1 µM,13 µM,12 µM,12 µM,Time to 50% Substrate Cleavage by York PSA (free PSA (York PSA)): 32 min; Time to 50% Substrate Cleavage by York PSA (free PSA (York PSA); listed as Ac-4-trans-L-HypSSChgQSS-(4-O-Sar)-(dAc)-VIN): 15 min
"4-O-(Ac-4-trans-L-HypSSChgQSV-glycolyl)-VIN: peptide-vinca drug conjugate, SEQ ID NO 88 (XSSXQSV; N-acetyl; glycolyl linker; vinblastine conjugate)",4.1 µM,8.1 µM,–,–,Time to 50% Substrate Cleavage by York PSA (free PSA (York PSA)): 8 min
"4-O-(Ac-4-trans-L-HypSSChgQSV-lactyl)-dAc-VIN: peptide-vinca drug conjugate, SEQ ID NO 94",3.1 µM,8.1 µM,–,–,Remark printed with the cleavage time (stability of conjugate / fate of product) (free PSA (York PSA); PSA digestion): stable; Time to 50% Substrate Cleavage by York PSA (free PSA (York PSA)): 7 min
"CCC(N)C(=O)OC1C2(CC)C=CCN3CCC4(c5cc(C6(C(=O)OC)CC7CN(CCc8c6[nH]c6ccccc86)CC(O)(CC)C7)c(OC)cc5N(C)C4C1(O)C(=O)OC)C32 (racemic) [4-O-Abu-(dAc)-VIN, racemic mixture]",–,–,3.8 µM,5.5 µM,–
CCC1(O)CC2CN(CCc3c([nH]c4ccccc34)C(C(=O)OC)(c3cc4c(cc3OC)N(C)C3C(O)(C(=O)OC)C(OC(=O)C5CCCN5C(=O)C(N)CO)C5(CC)C=CCN6CCC43C65)C2)C1 (centres unmarked) [4-O-(SP)-dAc-VIN],–,–,0.1 µM,0.3 µM,–
CCC1(O)CC2CN(CCc3c([nH]c4ccccc34)C(C(=O)OC)(c3cc4c(cc3OC)N(C)C3C(O)(C(=O)OC)C(OC(=O)C5CCCN5C(=O)C(CO)NC(=O)C(N)CO)C5(CC)C=CCN6CCC43C65)C2)C1 (centres unmarked) [4-O-(SSP)-dAc-VIN],–,–,2 µM,14.5 µM,–
CCC1(O)CC2CN(CCc3c([nH]c4ccccc34)C(C(=O)OC)(c3cc4c(cc3OC)N(C)C3C(O)(C(=O)OC)C(OC(=O)C5CCCN5)C5(CC)C=CCN6CCC43C65)C2)C1 (centres unmarked) [4-O-(d)-prolyl-(dAc)-VIN ester],–,–,2 µM,4.1 µM,–
"CCC1(O)CC2CN(CCc3c([nH]c4ccccc34)C(C(=O)OC)(c3cc4c(cc3OC)N(C)C3C(O)(C(=O)OC)C(OC(=O)C5CCCN5)C5(CC)C=CCN6CCC43C65)C2)C1 (centres unmarked) [4-O-(prolyl)-dAc-VIN, 4-des- Acetylvinblastine 4-O-(Prolyl) ester]",–,–,0.7 µM,4.1 µM,–
"CCC(N)C(=O)O[C@@H]1[C@]2(CC)C=CCN3CC[C@@]4(c5cc([C@@]6(C(=O)OC)C[C@@H]7CN(CCc8c6[nH]c6ccccc86)C[C@](O)(CC)C7)c(OC)cc5N(C)[C@H]4[C@@]1(O)C(=O)OC)[C@@H]32 (some centres unmarked) [4-O-Abu-(dAc)-VIN, I isoform]",–,–,3.9 µM,2.3 µM,–
CCC1(O)CC2CN(CCc3c([nH]c4ccccc34)C(C(=O)OC)(c3cc4c(cc3OC)N(C)C3C(O)(C(=O)OC)C(OC(=O)C(C)NC)C5(CC)C=CCN6CCC43C65)C2)C1 (centres unmarked) [4-O-[N-Me-dA]-dAc-VIN],–,–,1 µM,1.7 µM,–
CC[C@]1(O)C[C@@H]2CN(CCc3c([nH]c4ccccc34)[C@@](C(=O)OC)(c3cc4c(cc3OC)N(C)[C@H]3[C@@](O)(C(=O)OC)[C@H](OC(=O)CN)[C@]5(CC)C=CCN6CC[C@]43[C@@H]65)C2)C1 [4-O-glycine-(dAc)-VIN],0.3 µM,1.8 µM,–,–,–
CC[C@]1(O)C[C@H]2CN(CCc3c([nH]c4ccccc34)[C@@](C(=O)OC)(c3cc4c(cc3OC)N(C)[C@H]3[C@@](O)(C(=O)OC)[C@H](OC(=O)[C@@H](N)CC(C)C)[C@]5(CC)C=CCN6CC[C@]43[C@@H]65)C2)C1 [4-O-leucyl-(dAc)-VIN],–,–,4.5 µM,4.5 µM,–
CCC1(O)CC2CN(CCc3c([nH]c4ccccc34)C(C(=O)OC)(c3cc4c(cc3OC)N(C)C3C(O)(C(=O)OC)C(OC(=O)C5CCCCN5)C5(CC)C=CCN6CCC43C65)C2)C1 (centres unmarked) [4-O-pipecolyl-dAc-VIN],–,–,0.7 µM,0.7 µM,–
CC[C@]1(O)C[C@H]2CN(CCc3c([nH]c4ccccc34)[C@@](C(=O)OC)(c3cc4c(cc3OC)N(C)[C@H]3[C@@](O)(C(=O)OC)[C@H](OC(=O)CNC)[C@]5(CC)C=CCN6CC[C@]43[C@@H]65)C2)C1 [4-O-sarcosyl-(dAc)-VIN],1.3 µM,1.8 µM,–,–,–
CCC1(O)CC2CN(CCc3c([nH]c4ccccc34)C(C(=O)OC)(c3cc4c(cc3OC)N(C)C3C(O)(C(=O)OC)C(OC(=O)CO)C5(CC)C=CCN6CCC43C65)C2)C1 (centres unmarked) [4-hydroxyacetyl-VIN],–,–,1.3 µM,3.3 µM,–
CCC1(O)CC2CN(CCc3c([nH]c4ccccc34)C(C(=O)OC)(c3cc4c(cc3OC)N(C)C3C(O)(C(=O)OC)C(OC(=O)C5CC(O)CN5)C5(CC)C=CCN6CCC43C65)C2)C1 [(4-O-4-trans-L-Hyp)-dAc-VIN],0.6 µM,1.1 µM,–,–,–
CCC1(O)CC2CN(CCc3c([nH]c4ccccc34)C(C(=O)OC)(c3cc4c(cc3OC)N(C)C3C(O)(C(=O)OC)C(OC(=O)C(C)N)C5(CC)C=CCN6CCC43C65)C2)C1 (centres unmarked) [(4-O-Ala)-(dAc)-VIN],–,–,0.6 µM,4.2 µM,–
CCC1(O)CC2CN(CCc3c([nH]c4ccccc34)C(C(=O)OC)(c3cc4c(cc3OC)N(C)C3C(O)(C(=O)OC)C(OC(=O)C(N)Cc5ccccc5)C5(CC)C=CCN6CCC43C65)C2)C1 (centres unmarked) [(4-O-Phe)-(dAc)-VIN],–,–,3.8 µM,2.2 µM,–
"CC[C@]1(O)C[C@@H]2CN(CCc3c([nH]c4ccccc34)[C@@](C(=O)OC)(c3cc4c(cc3OC)N(C)[C@H]3[C@@](O)(C(=O)OC)[C@H](OC(C)=O)[C@]5(CC)C=CCN6CC[C@]43[C@@H]65)C2)C1 [VINBLASTINE, vinblastine, reference compound]",–,–,–,–,"EC50 ([1]; Homo sapiens, 72 HRS, read-out: LNCaP Cell Kill in 72 HRS. {48 HRS} EC 50): 0.5 µM; EC50 (Colo320DM cells; Homo sapiens, COLO 320DM, 72 HRS, read-out: Colo320DM EC 50): 0.5 µM"
